Test results reported in patent US5244916A, “Inhibition of respiratory burst using posttranslational modification inhibitors” (The Scripps Research Institute, priority 1992, dated 1993).
Where two headings read alike, the source gives them in different places.

Columns and labels:
[1] = test system: HL-60 cells (NADPH oxidase / respiratory burst); assay: O2- formation by DMSO-differentiated HL-60 cells, FMLP-stimulated (SOD-sensitive cytochrome c reduction); format: cell-based; settings: for activity at 0.4 µM / activity at 2 µM / activity at 4 µM / activity at 10 µM: Homo sapiens, HL-60; for activity at 0.4 µM: 0.4 μM compactin; for activity at 2 µM: 2 μM compactin; for activity at 4 µM: 4 μM compactin; for activity at 10 µM: 10 μM compactin
Method: (§1) HL-60 cells were maintained in stationary culture in RPMI 1640 medium (Gibco, Grand Island, NY) containing 10% fetal bovine serum at 37° C in an atmosphere of 95 air and 5% CO2. The cells (about 8×10^5 /ml) were differentiated into neutrophil-like cells by treatment with 1.3% DMSO for six days (Harris, et al., J. Leukocyte Biol. 37: 407-422 (1985)). The cells were treated with the indicated levels of compactin or lovastatin by addition of a 1,000-fold concentrated stock solution to the appropriate concentration on day 4 of differentiation. […] In studies of the protective effect of mevalonic acid, the compound was added as the mevalonolactone (Sigma Chemical Co., St. Louis, MO) at a concentration of 1 mM to the cell culture on days 4 to 6. Similarly, cholesterol was added in the form of LDL prepared according to the method of Curtiss and Edgington (Curtiss, et al., J. Biol. Chem. 257: 15213-15221 (1991)) at a final concentration of 50 μg/ml; ubiquinone (Sigma Chemical Co., St. Louis, MO) was added as Coenzyme Q-10 at a final concentration of 0.5 mM; and dolichol (Sigma Chemical Co., St. Louis, MO) was added as a dispersion in phosphatidylcholine at a final concentration of 0.5 mM (Cutts, et al., J. Cell Physiol. 139: 550-555 (1989)).
O2 --formation by HL-60 cells was assessed by the SOD-sensitive reduction of cytochrome c. Cells were suspended at 1×10^7 /ml in Krebs-Ringer Hepes buffer with 5.5 mM glucose (KRHG) and 50-100μl of cells were added to a cuvette containing 100 μM cytochrome c (type III, Sigma Chemical Co., St. Louis, MO), ±300 μg/ml SOD (Sigma Chemical Co., St. Louis, MO) in 700-750 μl KRHG. Cytochalasin b (Sigma Chemical Co., St. Louis, MO) was added to a final concentration of 5 μg/ml, and the cells were incubated at 37° C. for five minutes while a stable baseline at a wavelength of 550 nm was obtained. O2 --formation was initiated by the addition of 1 μM N-formylmethionylleucylphenylalanine (FMLP; Sigma Chemical Co., St. Louis, MO) or 1μg/ml phorbol myristate acetate (PMA; Sigma Chemical Co., St. Louis, MO). Cytochrome c reduction at 550nm was continuously monitored and maximal rate and extent of the reaction calculated.

[2] = test system: NADPH oxidase in HL-60 cells; assay: Inhibition of NADPH oxidase activation / O2- generation in HL-60 cells (stimulus not singled out); format: cell-based
Method: as §1, with “(1989)). O2 --formation by HL-60 cells was assessed by the SOD-sensitive reduction of cytochrome c. Cells were suspended at 1×10^7 /ml in Krebs-Ringer Hepes buffer with 5.5 mM glucose (KRHG) and 50-100μl of cells were added to a cuvette containing 100 μM cytochrome c (type III, Sigma Chemical Co., St. Louis, MO), ±300 μg/ml SOD (Sigma Chemical Co., St. Louis, MO) in 700-750 μl KRHG. Cytochalasin b (Sigma Chemical Co., St. Louis, MO) was added to a final concentration of 5 μg/ml, and the cells were incubated at 37° C. for five minutes while a stable baseline at a wavelength of 550 nm was obtained. O2 --formation was initiated by the addition of 1 μM N-formylmethionylleucylphenylalanine (FMLP; Sigma Chemical Co., St. Louis, MO) or 1μg/ml phorbol myristate acetate (PMA; Sigma Chemical Co., St. Louis, MO). Cytochrome c reduction at 550nm was continuously monitored and maximal rate and extent of the reaction calculated.” for “(1989)).”

[3] = read-out: FMLP-stimulated O2- formation, Extent
[4] = read-out: FMLP-stimulated O2- formation, Rate

Which results are given for `CC[C@H](C)C(=O)O[C@H]1CCC=C2C=C[C@H](C)[C@H](CC[C@@H]3C[C@@H](O)CC(=O)O3)[C@H]21` [compactin]?
activity at 0.4 µM [1, 3]: 71 ± 10%; activity at 0.4 µM [1, 4]: 77 ± 10%; activity at 2 µM [1, 3]: 36 ± 11%; activity at 2 µM [1, 4]: 47 ± 11%; activity at 4 µM [1, 3]: 22 ± 1%; activity at 4 µM [1, 4]: 39 ± 4.1%; activity at 10 µM [1, 3]: 12 ± 2.1%; activity at 10 µM [1, 4]: 15 ± 2.6%; inhibition of O2- formation in response to FMLP ([1]; various concentrations): dose-dependent inhibition; inhibition of NADPH oxidase activation, effective concentrations [2]: micromolar concentrations; inhibition at 10 µM ([2]; Homo sapiens, HL-60, 10 μM compactin, response to FMLP or PMA, read-out: inhibition of O2- formation): > 85%; IC50 ([2]; Homo sapiens, DMSO-differentiated HL-60, response to FMLP or PMA, read-out: half-maximal inhibition of O2- formation): 0.4 to 2 µM; ability of HL-60 cells to generate O2- ([2]; response to receptor stimuli and downstream activators): markedly inhibited
